Test results from US12150934B2 (Bantam Pharmaceutical, LLC, priority 2016, dated 2024).

Tested on: BJAB cells
Test: BJAB cell proliferation (Cell Titer Glo)
Assay type: cell-based
Conditions: Homo sapiens, approximately 72 hours
Procedure: Cells were seeded in white Corning Costar 96-well assay plates at 2500 cells/well in 50 μL of medium. Serial dilutions of test compounds were made in cell culture medium/FBS+0.2% DMSO, and transferred to assay plates in a volume of 50 μL (DMSO at 0.1% final). Plates were maintained at 37° C. for approximately 72 hours. The effect of compounds on cell proliferation was evaluated using the Cell Titer Glo reagent (Promega), according to the manufacturer's instructions. Briefly, 100 μL of reagent was added per well, and after a 10 minute incubation luminescence values were determined on a plate reader (Tecan F200PRO). The percent of luminescence signal relative to untreated controls was calculated for each compound concentration, and EC50 values were determined from dose response data by non-linear regression analysis using Prism (GraphPad). The mTor inhibitor Torin1 (Liu, et al. (2010) J. Med. Chem. 53, 7146) was used as a control. The data are summarized in the compound table provided above.

Compound	EC50 [µM]
CSc1sc(-n2nc(C)c(Cc3ccccc3[N+](=O)[O-])c2C(=O)O)nc1-c1ccc(Cl)c(Cl)c1 [Compound 45, 1-(4-(3,4-dichlorophenyl)-5-(methylthio)thiazol-2-yl)-3-methyl-4-(2-nitrobenzyl)-1H-pyrazole-5-carboxylic acid]	25 to 50
Cc1nn(-c2nc(-c3cccc(F)c3)c(SC(C)C)s2)c(C(=O)O)c1-c1cccc(F)c1 [Compound 201a]	25 to 50
Cc1nn(-c2nc(-c3cc4ccccc4o3)c(SC(C)C)s2)c(C(=O)O)c1-c1cccc(F)c1 [Compound 201b]	10 to 25
Cc1nn(-c2nc(-c3ccc(Cl)c(Cl)c3)c(F)s2)c(C(=O)O)c1-c1cccc(F)c1 [Compound 227, 1-(4-(3,4-dichlorophenyl)-5-fluorothiazol-2-yl)-4-(3-fluorophenyl)-3-methyl-1H-pyrazole-5-carboxylic acid]	10 to 25
COCCOc1cc(Cl)cc(-c2c(C)nn(-c3nc(-c4ccc(Cl)c(Cl)c4)c(SC(C)C)s3)c2C(=O)O)c1 [Compound 175, 4-(3-chloro-5-(2-methoxyethoxy)phenyl)-1-(4-(3,4-dichlorophenyl)-5-(isopropylthio)thiazol-2-yl)-3-methyl-1H-pyrazole-5-carboxylic acid]	1 to 5
Cc1nn(C)cc1-c1c(C)nn(-c2nc(-c3ccc(Cl)c(Cl)c3)c(SC(C)C)s2)c1C(=O)O [Compound 22, 2-(4-(3,4-dichlorophenyl)-5-(isopropylthio)thiazol-2-yl)-2′,5,5′-trimethyl-4,4′-bi(2H-pyrazole)-3-carboxylic acid]	10 to 25
Cc1nn(-c2nc(-c3ccc(C#N)cc3)c(SC(C)C)s2)c(C(=O)O)c1-c1cccc(F)c1 [Compound 213, 1-(4-(4-cyanophenyl)-5-(isopropylthio)thiazol-2-yl)-4-(3-fluorophenyl)-3-methyl-1H-pyrazole-5-carboxylic acid]	5 to 10
CCNC(=O)c1cc(-c2nc(-n3nc(C)c(-c4cccc(F)c4)c3C(=O)O)sc2SC(C)C)ccc1Cl [Compound 243, 1-(4-(4-chloro-3-(ethylcarbamoyl)phenyl)-5-(isopropylthio)thiazol-2-yl)-4-(3-fluorophenyl)-3-methyl-1H-pyrazole-5-carboxylic acid]	> 40
Cc1nn(-c2nc(-c3cc(Cl)cc(Cl)c3)c(SC(C)C)s2)c(C(=O)O)c1-c1cc(Cl)cc(Cl)c1 [Compound 150, 4-(3,5-dichlorophenyl)-1-(4-(3,5-dichlorophenyl)-5-(isopropylthio)thiazol-2-yl)-3-methyl-1H-pyrazole-5-carboxylic acid]	1 to 5
CCC(C)Sc1sc(-n2nc(C)c(-c3cc(C)nc(C)c3)c2C(=O)O)nc1-c1ccc(Cl)c(Cl)c1 (centres unmarked) [Compound 33b]	< 1
Cc1nn(-c2nc(-c3cncc(C#N)c3)c(SC(C)C)s2)c(C(=O)O)c1-c1cccc(F)c1 [Compound 210, 1-(4-(5-cyanopyridin-3-yl)-5-(isopropylthio)thiazol-2-yl)-4-(3-fluorophenyl)-3-methyl-1H-pyrazole-5-carboxylic acid]	> 40

Same assay, conditions: approximately 72 hours

Compound	EC50 (BJAB cell proliferation)
Cc1nn(-c2nc(-c3ccc(Cl)c(Cl)c3)c(SC(C)C)s2)c(C(=O)O)c1-c1cccc(F)c1 [Compound 151, 1-(4-(3,4-dichlorophenyl)-5-(isopropylthio)thiazol-2-yl)-4-(3-fluorophenyl)-3-methyl-1H-pyrazole-5-carboxylic acid]	A,B

Tested on: HCT116 cells
Test: Effect on glutathione levels with menadione and N-acetyl cysteine
Assay type: cell-based
Conditions: FIG. 3
Procedure: Effect on Glutathione levels: BJAB and HCT116 cells were maintained in RPMI medium (Wisent) or McCoy's medium (Wisent), respectively. 5000 cells/well were transferred to clear-bottom 96-well assay plates (Thermo Fisher) in a volume of 50 μL. Plates were incubated overnight at 37° C. in 5% CO2, in an unsealed plastic bag with damp paper. Menadione (Sigma) was dissolved in DMSO and diluted in 10% heat inactivated FBS plus culture medium to 20 μM and 5 μM (0.2% DMSO for each). Culture medium was gently aspirated from cells and replaced by 50 μl diluted menadione or 0.2% DMSO for controls. Test compound was diluted to 80 μM (0.2% DMSO) in 10% heat inactivated FBS plus culture medium then diluted further to 5 μM, 1 μM, 0.5 μM and 0.05 μM (in 0.2% DMSO). 50 μL test compound solution was added to each well, with or without menadione. One μL of an N-acetyl cysteine (Sigma) solution at 100 mM in water was added where indicated. Assay plates were incubated for the times indicated at 37° C. 5% CO2 in opened plastic bag with damp paper. Total glutathione levels were determined according to the procedure described above.

Compound	Glutathione levels in HCT116 cells after treatment
CC1=CC(=O)c2ccccc2C1=O [menadione]	reduction

Same assay, conditions: presence or absence of N-acetyl cysteine, FIG. 3

Compound	Effect of N-acetyl cysteine on the reduction of glutathione
CC1=CC(=O)c2ccccc2C1=O [menadione]	prevents the reduction
